In patent US10987318B2, “Application of clofoctol for manufacturing pharmaceutical product for treating human neuroglioma” (INSTITUTE OF BASIC MEDICAL SCIENCES, CHINESE ACADEMY OF …, priority 2016, dated 2021):

What was measured:
[1] = system: glioma stem cells (U87MG SLC, U251 SLC, GSC2, GSC5); assay: Detection of cell viability by MTS assay; format: cell-based, human
From the text: “MTS assay”: a colorimetric method for determining the number of viable cells in proliferation assays and cytotoxicity assays. MTS is a novel tetrazolium compound. PMS is an electron coupling reagent with enhanced chemical stability, which forms a stable solution when mixed with MTS. MTS can be reduced by cellular organisms to generate a colored formazan product that is soluble in culture media. This conversion is thought to be carried out by NAD(P)H-dependent dehydrogenase enzymes in metabolically active cells. The amount of the formazan product, which is quantified at 490 nm, is proportional to the number of viable cells in culture.
“The relative cell viability”: after the detection of the value of absorbance by above MTS assay, the relative cell viability is calculated based on the value of absorbance (A). […]
(2) In order to detect the effect of clofoctol on cell viability of glioma stem cells, the experiment was carried out using a 96-well cell culture plate which is coated with 100 μg/mL poly-lysine overnight, wherein the plate was washed twice next day with saline, and allowed to dry until use. The cells were digested, resuspended as a single cell suspension, counted and seeded on a 96-well cell culture plate (U87MG SLC (5000 cells/well), U251 SLC (10000 cells/well), GSC2 (10000 cells/well), GSC5 (10000 cells/well)), allowed to grow overnight. […]

[2] = system: glioma stem cells (GSC2-GFP, U87MG SLC-GFP) co-cultured with normal human astrocytes (HA); assay: Flow cytometry of co-culture model (GSC2-GFP or U87MG SLC-GFP + HA-RFP); format: cell-based; conditions: 24 hours, 1-30 μM; compared with normal human astrocytes
Protocol: 6-well and 96-well cell culture plates were pre-coated with 100 μg/mL poly-lysine at 37° C. overnight, followed by washing twice with saline and allowing to air-dry. GSC2-GFP cells stably expressing green fluorescence and HA cells stably expressing red fluorescence were digested into single cell, and resuspended in fresh culture medium, counted and diluted to 5×10^4 cells/mL. Then, the two types of cells were mixed well at a ratio of 1:1, divided into five tubes. Clofoctol were added in each tube and mixed well, so that the concentrations of clofoctol were 0 μM, 1 μM, 3 μM, 10 μM, 30 μM, respectively. The resulting mixtures were added to a 6-well cell culture plate (2 mL) and a 96-well cell culture plate (100 μL, 3 replicate wells per group) respectively for 24 hours, before the MTS assay was used to detect the cell activity of each treatment group in the 96-well cell culture plate. The cells in the 6-well cell culture plates were collected separately, washed twice with PBS, and resuspended with 100 μL respectively. The proportion of GSC2-GFP and HA-RFP in the viable cells of each treatment group was analyzed by flow cytometry. Considering the changes in cell activity after medicament treatment of the co-culture model, the relative cell viability of each cell component in the co-culture model was statistically analyzed. […]

[3] = system: GSC2 tumorspheres; assay: Experiment of tumorsphere formation; format: cell-based, human
Protocol: After coating the 96-well cell culture dish, 100 μL single cell suspension containing 5000 GSC2 was added to each well. After 4 days of natural growth, the original medium was removed, and 100 μL fresh culture containing various concentrations of clofoctol was added to each well. The medicament concentrations were 0.03 μM, 0.1 μM, 0.3 μM, 1 μM, 3 μM, 10 μM and 30 μM, respectively. After 48 hours of medicament treatment, the morphological changes of the tumorspheres in each treatment group were observed under the microscope, and the number of tumorspheres in each treatment group was also counted.

[4] = system: GSC5; assay: Limited dilution experiment (self-renewal); format: cell-based, human; conditions: GSC5, 1 μM, 3 μM and 10 μM, 2 weeks
Protocol: (1) The cells of GSC5 tumorspheres in suspension culture were collected into a 15 mL centrifuge tube, 0.5 mL of ACCUTASE enzyme (purchased from sigma) was added, and the cells were digested at 37° C. for 5 minutes. Then the cells were pipetted to single cell and the supernatant was removed after centrifugation;
(2) Fresh Neurobasal culture medium (purchased from gibco) was added. A portion of the cells were taken for trypan blue staining, followed by cell counting.
(3) After calculating the desired volume of cell culture medium, the cell concentration gradient of 200, 100, 50, 25 cells/well was set, and 10 replicate wells for each concentration were set. The DMSO control group and medicament treatment group with 0 μM, 1 μM, 3 μM and 10 μM of clofoctol were set.
(4) The cells were seeded in a 96-well plate at 100 and cultured in an incubator at 37° C., 5% CO2, 2 weeks later the proportion of the well without tumorsphere was counted;

[5] = system: glioma stem cells (GSC5; FIG. 6 legend: GSC2); assay: Recovery assay (MTS after removal of medicament); format: cell-based, human; conditions: 24 or 48 hours treatment, then 48 hours in fresh medium
Protocol: (1) The 96-well cell culture plate was coated with 100 μg/mL poly-lysine.
(2) GSC5 was digested into single cell using ACCUTASE enzyme, resuspended in fresh Neurobasal culture medium, and the cells were then plated on the pre-coated 96-well cell culture plates overnight;
(3) clofoctol was added, the concentration of which were 0.03 μM, 0.1 μM, 0.3 μM, 1 μM, 3 μM, 10 μM and 30 μM, 9 replicate wells for each concentration;
(4) after 24 hours of treatment, 20 μL MTS/PMS mixed reagent was added to 3 replicate wells of each concentration to measure the cell activity. The medicament-containing medium in the other 6 replicate wells was removed, fresh medium was added to 3 of the 6 replicate wells, and medium containing the same concentration of clofoctol was added to the rest 3 replicate wells;
(5) after 48 hours of incubation, cell activity was detected by MTS assay.
After 48 hours of medicament treatment, the cells were restored for 48 hours and then detected, the steps are as above.

[6] = system: GSC2; assay: In situ tumorigenesis in nude mice of pretreated GSC2; format: in vivo, Balb/C nude mice
Protocol: The cells were collected after 24 hours of pre-treatment with clofoctol at a concentration of 30 μM, washed twice with PBS, and a portion of the cells were subjected to trypan blue staining and cell counting. The cells were injected in situ into the intracranial striatum of Balb/C nude mice aged 5-7 weeks, at 10^5 cells/mouse, 5 mice each group, and a DMSO control group was set.

[7] = system: U87MG SLC-GFP xenograft; assay: Administration to zebrafish glioma xenograft model; format: in vivo; conditions: 10 μM in hatching solution, 48 hours
Protocol: 3000 green-fluorescent-labeled U87MG SLC-GFP were injected into the yolk sac of the 48-hour zebrafish embryo. After 48 hours of natural growth, fluorescence microscopy was used to detect the tumorigenesis in zebrafish. And then clofoctol at a concentration of 10 μM was added to the zebrafish hatching solution. After 48 hours of medicament treatment, the green fluorescence intensity of zebrafish yolk sac was detected by fluorescence microscopy to determine the in vivo inhibitory effect of clofoctol on tumors in zebrafish xenograft models.

[8] = system: GSC2 subcutaneous tumors; assay: Subcutaneous GSC2 xenograft at armpits of nude mice; format: in vivo, Balb/C nude mice; conditions: 20 mg/kg, intraperitoneal injection, 11 days
Protocol: Subcutaneous tumorigenesis at armpits of nude mice: after centrifugation and digestion, GSC2 single cell re-suspended in PBS was subcutaneously inoculated into the armpits of 15 Balb/C nude mice of 5 weeks old. The inoculation number of the cells was 10^5 cells/mouse. The tumor size of nude mice was recorded (tumor size in nude mice=length*width^2/2). When the subcutaneous tumors in nude mice reached about 100 mm^3, they were divided into DMSO group and clofoctol administration group. The dose administered was 20 mg/kg, the mice were administered by intraperitoneal injection for a period of 11 days. The changes in tumor size and the body weight in two groups of nude mice were recorded.

[9] = system: GSC2; assay: Annexin V/PI counterstaining for the detection of apoptosis; format: cell-based, human; conditions: GSC2, 1-30 μM, 12 hours or 24 hours
Protocol: (1) GSC2 were treated with clofoctol at the concentrations of 1 μM, 3 μM, 10 μM, 30 μM for 12 hours or 24 hours;
(2) the cells were collected and washed twice with PBS;
(3) the cells were resuspended with 50 μL 1*binding buffer with the cell density of about 1*10^6 cells/mL;
(4) 2.5 μL FITC Annexin V and 2.5 μL PI were added;
(5) incubating for 15 min at room temperature in the darkness;
(6) 200 μL of 1*binding buffer was added to the system, and the cells in each treatment tube was passed through the cell strainer;
(7) flow cytometry analysis;
The Annexin V/PI counterstaining kit used was purchased from BD pharmingen with the product lot number 556547.

SMILES: CC(C)(C)CC(C)(C)c1ccc(O)c(Cc2ccc(Cl)cc2Cl)c1 [clofoctol, 2-[(2,4-dichlorophenyl)methyl]-4-(2,4,4-trimethylpentan-2-yl)phenol]
- cell activity of glioma stem cells (MTS, FIG. 1) ([1]; 48 hours, 0.3-30 μM, compared with glioma cells and normal human cell lines): specifically inhibits the cell activity of glioma stem cells
- IC50 ([1]; Homo sapiens, four glioma stem cell strains (U87MG SLC, U251 SLC, GSC2, GSC5), after 48 hours treatment): 7.65 to 10.5 µM
- relative cell viability of each cell component in the co-culture model [2]: specifically inhibits the cell activity of glioma stem cells in the co-culture model
- morphology of tumorspheres at low concentrations ([3]; GSC2, 0.03 μM, 0.1 μM, 48 hours): grow protuberances and exhibit clear differentiation-like characteristics
- morphology of tumorspheres at high concentrations ([3]; GSC2, 10 μM, 30 μM, 48 hours): caused the death of marginal cells of tumorspheres
- size and number of tumorspheres ([3]; GSC2, 48 hours, 0.03-30 μM): significantly reduce the size and number of tumorspheres
- formation of glioma stem cell clones (self-renewal ability) [4]: significantly inhibits the formation of glioma stem cell clones
- reversibility of the effect on glioma stem cells after removal of medicament [5]: irreversible to some extent
- in situ tumorigenesis (mice with tumor / mice injected) ([6]; GSC2 pretreated 24 hours at 30 μM, 1 * 10^5 cells/mouse, intracranial striatum): 0/5
- ability of in situ tumorigenesis in nude mice ([6]; pretreatment of GSC2 at 30 μM for 24 hours): significantly inhibits its ability of in situ tumorigenesis in nude mice
- in vivo tumor growth (green fluorescence intensity of yolk sac) [7]: significantly inhibits the in vivo tumor growth
- side effects (body weight) [8]: side effects were small
- tumor growth (tumor size) [8]: significantly inhibits tumor growth
- apoptosis in glioma stem cells [9]: can induce apoptosis in glioma stem cells
